One block for each compound: values may come before it.
Key:
Conditions in all cases: binder
MSK1b = MSK1b (Homo sapiens, UniProt O75582)
DAPK1 = DAPK1 (Homo sapiens, UniProt P53355)
CHK2 = CHK2 (Homo sapiens, UniProt O96017)
BMX = molecular target: T1, BMX (Homo sapiens, UniProt P51813)
T1 sequence (P51813 1-675): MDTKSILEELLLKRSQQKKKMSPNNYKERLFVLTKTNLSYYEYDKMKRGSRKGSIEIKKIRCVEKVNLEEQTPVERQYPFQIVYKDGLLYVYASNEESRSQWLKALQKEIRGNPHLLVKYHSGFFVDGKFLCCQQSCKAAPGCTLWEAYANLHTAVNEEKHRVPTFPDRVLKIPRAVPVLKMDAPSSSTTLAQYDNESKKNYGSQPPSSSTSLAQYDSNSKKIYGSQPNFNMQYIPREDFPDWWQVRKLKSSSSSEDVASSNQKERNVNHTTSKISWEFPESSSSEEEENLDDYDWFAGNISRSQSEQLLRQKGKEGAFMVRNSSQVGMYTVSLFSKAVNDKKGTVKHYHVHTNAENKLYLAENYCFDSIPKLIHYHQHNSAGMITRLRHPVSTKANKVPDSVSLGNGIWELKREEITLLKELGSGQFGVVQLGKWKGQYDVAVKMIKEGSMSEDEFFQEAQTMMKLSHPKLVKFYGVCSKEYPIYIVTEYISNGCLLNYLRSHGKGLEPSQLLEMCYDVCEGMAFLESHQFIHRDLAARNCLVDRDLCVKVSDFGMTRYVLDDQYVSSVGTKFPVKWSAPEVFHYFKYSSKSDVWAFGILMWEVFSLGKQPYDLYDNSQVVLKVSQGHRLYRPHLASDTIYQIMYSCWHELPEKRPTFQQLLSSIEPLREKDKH

MST1 = molecular target: T2, MST1 (Homo sapiens, UniProt Q13043)
T2 sequence (Q13043 1-487): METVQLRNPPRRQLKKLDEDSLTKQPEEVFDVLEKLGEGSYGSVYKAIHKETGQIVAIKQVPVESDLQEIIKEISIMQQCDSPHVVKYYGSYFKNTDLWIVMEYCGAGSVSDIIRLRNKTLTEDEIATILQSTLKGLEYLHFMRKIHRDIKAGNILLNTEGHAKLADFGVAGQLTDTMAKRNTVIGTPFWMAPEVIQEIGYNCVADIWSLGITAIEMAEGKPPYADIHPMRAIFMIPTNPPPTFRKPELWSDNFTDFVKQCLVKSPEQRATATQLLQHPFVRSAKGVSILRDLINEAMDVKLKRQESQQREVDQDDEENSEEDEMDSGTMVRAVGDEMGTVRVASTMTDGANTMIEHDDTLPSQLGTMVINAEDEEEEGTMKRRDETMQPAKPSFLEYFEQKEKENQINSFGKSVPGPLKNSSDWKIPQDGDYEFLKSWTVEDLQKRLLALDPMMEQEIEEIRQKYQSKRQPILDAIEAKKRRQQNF

CK1d = CK1d (Homo sapiens, UniProt P48730)
NEK7 = NEK7 (Homo sapiens, UniProt Q8TDX7)
CK2a2 = CK2a2 (Homo sapiens, UniProt P19784)
DYRK1A = DYRK1A (Homo sapiens, UniProt Q13627)
FGFR1 = FGFR1 (Homo sapiens, UniProt P11362)
CK2a1 = CK2a1 (Homo sapiens, UniProt P68400)
Sequence of CK2a1 (P68400 whole entry): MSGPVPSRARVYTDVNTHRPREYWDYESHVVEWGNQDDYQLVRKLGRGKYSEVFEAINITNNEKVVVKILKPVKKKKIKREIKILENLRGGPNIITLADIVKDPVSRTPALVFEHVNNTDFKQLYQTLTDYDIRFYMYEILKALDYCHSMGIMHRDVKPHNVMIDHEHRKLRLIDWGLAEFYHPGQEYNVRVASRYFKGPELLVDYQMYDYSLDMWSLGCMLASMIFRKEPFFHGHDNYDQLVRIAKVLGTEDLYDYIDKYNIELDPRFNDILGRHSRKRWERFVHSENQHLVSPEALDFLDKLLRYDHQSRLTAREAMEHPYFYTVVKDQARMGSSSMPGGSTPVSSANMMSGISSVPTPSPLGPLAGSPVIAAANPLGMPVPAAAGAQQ

Sequence of FGFR1 (P11362 whole entry): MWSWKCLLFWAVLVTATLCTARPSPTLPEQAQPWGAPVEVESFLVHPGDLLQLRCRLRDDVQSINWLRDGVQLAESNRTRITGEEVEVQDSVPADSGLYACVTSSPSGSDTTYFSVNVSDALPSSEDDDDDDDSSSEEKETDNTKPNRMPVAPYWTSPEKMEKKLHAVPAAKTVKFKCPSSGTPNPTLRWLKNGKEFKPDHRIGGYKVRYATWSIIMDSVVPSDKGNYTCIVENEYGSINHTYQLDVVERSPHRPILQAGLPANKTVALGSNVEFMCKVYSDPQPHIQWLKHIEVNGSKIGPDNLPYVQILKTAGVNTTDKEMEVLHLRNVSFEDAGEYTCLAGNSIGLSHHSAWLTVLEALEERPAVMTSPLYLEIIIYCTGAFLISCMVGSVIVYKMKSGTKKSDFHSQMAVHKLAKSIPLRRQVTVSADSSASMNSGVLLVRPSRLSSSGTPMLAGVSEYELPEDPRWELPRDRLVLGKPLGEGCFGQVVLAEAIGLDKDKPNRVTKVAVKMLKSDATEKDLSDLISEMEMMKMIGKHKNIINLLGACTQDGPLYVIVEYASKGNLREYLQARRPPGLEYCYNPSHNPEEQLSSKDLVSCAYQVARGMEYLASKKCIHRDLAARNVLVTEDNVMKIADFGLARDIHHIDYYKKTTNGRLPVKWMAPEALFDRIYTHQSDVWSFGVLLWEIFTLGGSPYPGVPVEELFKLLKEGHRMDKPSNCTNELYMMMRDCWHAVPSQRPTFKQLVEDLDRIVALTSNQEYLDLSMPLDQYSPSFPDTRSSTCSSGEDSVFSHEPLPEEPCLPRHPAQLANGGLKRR
Sequence of MSK1b (O75582 whole entry): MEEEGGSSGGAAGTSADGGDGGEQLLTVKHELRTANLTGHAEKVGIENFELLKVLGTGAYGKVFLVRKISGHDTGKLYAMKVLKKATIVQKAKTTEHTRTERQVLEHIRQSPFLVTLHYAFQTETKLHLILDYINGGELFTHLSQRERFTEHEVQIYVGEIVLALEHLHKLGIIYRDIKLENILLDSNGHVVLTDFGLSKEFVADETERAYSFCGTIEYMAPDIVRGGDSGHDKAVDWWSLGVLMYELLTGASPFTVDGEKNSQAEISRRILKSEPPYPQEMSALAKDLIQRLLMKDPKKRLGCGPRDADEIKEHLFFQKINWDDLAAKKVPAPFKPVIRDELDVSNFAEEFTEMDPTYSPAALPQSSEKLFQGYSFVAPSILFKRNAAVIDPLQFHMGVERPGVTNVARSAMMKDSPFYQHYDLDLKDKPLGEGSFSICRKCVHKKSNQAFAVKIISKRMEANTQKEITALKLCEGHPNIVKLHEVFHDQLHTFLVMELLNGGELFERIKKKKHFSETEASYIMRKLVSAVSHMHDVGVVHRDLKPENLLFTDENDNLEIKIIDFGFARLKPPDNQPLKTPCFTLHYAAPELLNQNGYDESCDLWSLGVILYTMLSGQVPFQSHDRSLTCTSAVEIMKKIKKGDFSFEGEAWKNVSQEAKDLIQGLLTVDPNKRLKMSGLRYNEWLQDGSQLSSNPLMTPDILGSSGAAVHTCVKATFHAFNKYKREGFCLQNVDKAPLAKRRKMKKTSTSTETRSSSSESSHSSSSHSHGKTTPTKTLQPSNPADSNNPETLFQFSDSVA
Sequence of CK1d (P48730 whole entry): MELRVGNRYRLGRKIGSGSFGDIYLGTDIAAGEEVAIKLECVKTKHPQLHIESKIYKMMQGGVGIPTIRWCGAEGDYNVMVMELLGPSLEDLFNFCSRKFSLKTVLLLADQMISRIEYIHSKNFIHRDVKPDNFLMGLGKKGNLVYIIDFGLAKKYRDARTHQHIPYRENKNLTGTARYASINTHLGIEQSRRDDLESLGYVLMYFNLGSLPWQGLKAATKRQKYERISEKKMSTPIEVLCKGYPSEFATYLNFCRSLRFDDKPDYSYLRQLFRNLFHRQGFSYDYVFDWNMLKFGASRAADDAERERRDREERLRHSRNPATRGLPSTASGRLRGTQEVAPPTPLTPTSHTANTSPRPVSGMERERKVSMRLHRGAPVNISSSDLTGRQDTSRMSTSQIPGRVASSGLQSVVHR
Sequence of CK2a2 (P19784 whole entry): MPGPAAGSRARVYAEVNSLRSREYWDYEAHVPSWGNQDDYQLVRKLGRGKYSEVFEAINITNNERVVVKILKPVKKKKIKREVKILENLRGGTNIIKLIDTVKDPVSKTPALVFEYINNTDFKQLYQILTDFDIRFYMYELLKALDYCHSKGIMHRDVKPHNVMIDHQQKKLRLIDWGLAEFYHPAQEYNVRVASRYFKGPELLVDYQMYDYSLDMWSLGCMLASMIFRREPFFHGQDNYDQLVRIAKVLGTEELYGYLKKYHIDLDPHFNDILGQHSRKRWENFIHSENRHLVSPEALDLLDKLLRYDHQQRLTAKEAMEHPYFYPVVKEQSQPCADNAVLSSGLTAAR
Sequence of NEK7 (Q8TDX7 whole entry): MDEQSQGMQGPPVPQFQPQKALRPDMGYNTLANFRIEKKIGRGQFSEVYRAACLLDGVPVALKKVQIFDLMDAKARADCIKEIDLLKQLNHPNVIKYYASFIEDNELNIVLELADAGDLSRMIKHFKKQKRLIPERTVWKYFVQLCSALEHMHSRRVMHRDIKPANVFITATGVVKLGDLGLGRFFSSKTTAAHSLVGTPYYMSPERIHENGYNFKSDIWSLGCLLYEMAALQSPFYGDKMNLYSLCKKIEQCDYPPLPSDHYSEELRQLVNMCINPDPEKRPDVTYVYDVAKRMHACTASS
Sequence of CHK2 (O96017 whole entry): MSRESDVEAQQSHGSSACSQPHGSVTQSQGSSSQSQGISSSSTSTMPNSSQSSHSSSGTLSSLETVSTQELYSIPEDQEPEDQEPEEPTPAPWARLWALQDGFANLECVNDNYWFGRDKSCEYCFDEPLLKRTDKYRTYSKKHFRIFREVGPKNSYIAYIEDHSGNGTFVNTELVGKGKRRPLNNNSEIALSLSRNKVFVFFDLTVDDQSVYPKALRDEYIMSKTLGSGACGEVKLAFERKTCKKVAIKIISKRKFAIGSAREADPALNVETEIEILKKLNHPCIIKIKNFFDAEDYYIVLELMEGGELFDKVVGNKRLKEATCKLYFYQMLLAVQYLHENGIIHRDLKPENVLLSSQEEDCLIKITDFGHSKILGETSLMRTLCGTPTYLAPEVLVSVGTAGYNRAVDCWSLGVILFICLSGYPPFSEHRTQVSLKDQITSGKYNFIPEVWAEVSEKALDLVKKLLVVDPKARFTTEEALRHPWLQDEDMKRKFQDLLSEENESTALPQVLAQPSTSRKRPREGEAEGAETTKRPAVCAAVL

SMILES: CNc1ncc2cc(-c3ccc(-c4cccc(C)n4)cc3Cl)c(=O)n(CCC3CCNCC3)c2n1 [compound 22, 6-(2-Chloro-4-(6-methylpyridin-2-yl)phenyl)-2-(methylamino)-8-(2-(piperidin-4-yl)ethyl)pyrido[2,3-d]pyrimidin-7(8H)-one]
- ΔTm 22 (MSK1b): 0.1 °C
- ΔTm 22 (DAPK1): -0.8 °C
- ΔTm 22 (CHK2): 3.0 °C
- ΔTm 22 (BMX): 4.1 °C
- ΔTm 22 (MST1): 6.0 °C
- ΔTm 22 (CK1d): 2.1 °C
- ΔTm 22 (NEK7): 0.2 °C
- ΔTm 22 (CK2a2): -1.4 °C
- ΔTm 22 (DYRK1A): 0.5 °C
- ΔTm 22 (FGFR1): 1.1 °C
- ΔTm 22 (CK2a1): -0.6 °C

SMILES: CNc1ncc2cc(-c3ccc(-c4cccc(C)n4)cc3Cl)c(=O)n(CCCCN)c2n1 [compound 20, MRLW5]
- ΔTm MRLW5 (20) (MSK1b): 2.9 °C
- ΔTm MRLW5 (20) (DAPK1): -0.8 °C
- ΔTm MRLW5 (20) (CHK2): 2.8 °C
- ΔTm MRLW5 (20) (BMX): 3.1 °C
- ΔTm MRLW5 (20) (MST1): 5.6 °C
- ΔTm MRLW5 (20) (CK1d): 0.8 °C
- ΔTm MRLW5 (20) (NEK7): -0.1 °C
- ΔTm MRLW5 (20) (CK2a2): -0.6 °C
- ΔTm MRLW5 (20) (DYRK1A): -1.0 °C
- ΔTm MRLW5 (20) (FGFR1): 0.4 °C
- ΔTm MRLW5 (20) (CK2a1): -0.2 °C

SMILES: CNc1ncc2cc(-c3ccc(-c4cccc(C)n4)cc3Cl)c(=O)n(C[C@H]3CC[C@H](N)CC3)c2n1 [compound 23, 23]
- ΔTm 23 (MSK1b): 6.4 °C
- ΔTm 23 (DAPK1): -0.4 °C
- ΔTm 23 (CHK2): 4.6 °C
- ΔTm 23 (BMX): 3.4 °C
- ΔTm 23 (MST1): 7.9 °C
- ΔTm 23 (CK1d): 2.3 °C
- ΔTm 23 (NEK7): -0.3 °C
- ΔTm 23 (CK2a2): -0.9 °C
- ΔTm 23 (DYRK1A): -0.3 °C
- ΔTm 23 (FGFR1): 0.7 °C
- ΔTm 23 (CK2a1): -0.4 °C

Now from value to compound:

- ΔTm 25 (MSK1b): 1.4 °C
- ΔTm 25 (DAPK1): -1.0 °C
- ΔTm 25 (CHK2): 8.5 °C
- ΔTm 25 (BMX): 3.1 °C
- ΔTm 25 (MST1): -1.4 °C
- ΔTm 25 (CK1d): 3.1 °C
- ΔTm 25 (NEK7): -0.5 °C
- ΔTm 25 (CK2a2): -1.9 °C
- ΔTm 25 (DYRK1A): -0.1 °C
- ΔTm 25 (FGFR1): -0.4 °C
- ΔTm 25 (CK2a1): -0.4 °C
SMILES: Cc1cccc(-c2ccc(-c3cc4cnc(NCCCc5ccc(N)cc5)nc4n(CCCCN)c3=O)c(Cl)c2)n1 [compound 25, 8-(4-Aminobutyl)-2-((3-(4-aminophenyl)propyl)amino)-6-(2-chloro-4-(6-methylpyridin-2-yl)phenyl)pyrido[2,3-d]pyrimidin-7(8H)-one]

- ΔTm MR26 (26) (MSK1b): -0.4 °C
- ΔTm MR26 (26) (DAPK1): -0.7 °C
- ΔTm MR26 (26) (CHK2): 3.3 °C
- ΔTm MR26 (26) (BMX): 2.4 °C
- ΔTm MR26 (26) (MST1): -0.5 °C
- ΔTm MR26 (26) (CK1d): 1.9 °C
- ΔTm MR26 (26) (NEK7): -0.7 °C
- ΔTm MR26 (26) (CK2a2): -1.0 °C
- ΔTm MR26 (26) (DYRK1A): -0.3 °C
- ΔTm MR26 (26) (FGFR1): 0.3 °C
- ΔTm MR26 (26) (CK2a1): 0.6 °C
SMILES: Cc1cccc(-c2ccc(-c3cc4cnc(NCCCN5CCOCC5)nc4n(CCCCN)c3=O)c(Cl)c2)n1 [compound 26, MR26]

- ΔTm MR24 (24) (MSK1b): -1.0 °C
- ΔTm MR24 (24) (DAPK1): -0.8 °C
- ΔTm MR24 (24) (CHK2): 2.0 °C
- ΔTm MR24 (24) (BMX): 0.6 °C
- ΔTm MR24 (24) (MST1): -0.6 °C
- ΔTm MR24 (24) (CK1d): 1.2 °C
- ΔTm MR24 (24) (NEK7): -0.9 °C
- ΔTm MR24 (24) (CK2a2): -2.0 °C
- ΔTm MR24 (24) (DYRK1A): 0.1 °C
- ΔTm MR24 (24) (FGFR1): 0.4 °C
- ΔTm MR24 (24) (CK2a1): 0.0 °C
SMILES: Cc1cccc(-c2ccc(-c3cc4cnc(NC(CO)CO)nc4n(CCCCN)c3=O)c(Cl)c2)n1 [compound 24, 8-(4-Aminobutyl)-6-(2-chloro-4-(6-methylpyridin-2-yl)phenyl)-2-((1,3-dihydroxypropan-2-yl)amino)pyrido[2,3-d]pyrimidin-7(8H)-one]
